Experimental data from patent US20210144999A1, “COMPOSITIONS COMPRISING HYDROXYCINNAMIC ACID AND RELATED CONJUGATES, ANALOGUES AND DERIVATIVES, AND METHODS OF USE THEREOF” (YEDA RESEARCH AND DEVELOPMENT CO. LTD., priority 2017, published 2021).
“Also recorded” adds a separate entry of the source.

Legend:
[1] = test system: B. subtilis 3610 biofilms; test: Biofilm maintenance (% coverage) on tomato roots in planta; format: in vivo; settings: 1000 B. subtilis cells with or without materials, tomato plants on agrophonic beads
Procedure: (FIGS. 17A-17C) B. subtilis 3610 constantly expressing the fluorescent protein mKate2 was maintained on LB plates. 1000 cells either applied or non-applied with the materials indicated were added to tomato plants grown on agrophonic beads. % coverage was calculated based on quantifying 20 fields from the fluorescent microscope using Image J. Three replications were maintained for each assay. SD represents the average of three independent experiments.

B. subtilis biofilms = test: B. subtilis biofilm stability / maintenance in vitro; format: cell-based; settings: for effect on beneficial biofilms (stability / maintenance), single agent: in vitro, biofilms at day 1 and day 5
Procedure: Shown are biofilms of treated and untreated B. subtilis biofilms.
Strains and Media All experiments were performed with B. subtilis NCBI3610 and its derivatives. Assays were carried out with the biofilm-inducing medium, MSgg: 5 mM potassium phosphate, 100 mM MOPS (pH 7), 2 mM MgCl2, 50 μM MnCl2, 1 μM ZnCl2, 2 μM thiamine, 0.5% glycerol, 0.5% glutamate, 50 μg/ml tryptophan, 50 μg/mlphenylalanine 50 μg/ml threonine, 700 μM CaCl2, and 50 μM (for growth assays) or 125 μM (for biofilm assays) FeCl3^1. A solid MSgg medium was obtained by adding Bacto agar (Difco) to a final concentration of 1.5%. When necessary, selective medium was prepared with LB-agar or LB broth, supplemented with: 100 μg/ml ampicillin (amp) (AG Scientific), or 10 μg/ml kanamycin (kan) (AG Scientific), or 10 μg/ml chloramphenicol (cam) (Amresco), or 10 μg/ml tetracycline (tet) (Amresco), or 100 μg/ml spectinomycin (spec) (Tivan Biotech), or 1 μg/mlerythromycin (erm) (Amresco)+25 μg/ml lincomycin (linc) (Sigma Aldrich).

[2] = test system: pseudomonas syringae pv. Tomato; test: Tomato plant survival after pseudomonas syringae pv. Tomato infection (Example 9); format: in vivo, tomato plants; settings: 5 μM caffeic acid or 5 μM putrescine or 2.5 μM each; putrescine read 28 days after infection
Procedure: Bacillus strain B. subtilis 3610 (B.S) are maintained on LB plates. 1000 cells of B.S. with or without the addition of 5 μM of caffeic acid or 5 μM of putrescine, or 2.5 μM each of caffeic acid and putrescine are added to tomato plants grown on agrophonic beads. Plants are incubated at 28±2° C. for 15 days.

[3] = test system: pks operon (PKS promoter); test: pks expression, amyE::Ppks-gfp fluorescence reporter; format: cell-based, B. subtilis
Procedure: FIGS. 3A:-3H Specialized host-derived metabolites increase PKS activity while B. subtilis biofilms increase plant Induced Systemic Resistance (ISR). (FIG. 3A) Quantification of pks expression (amyE::Ppks-gfp) in B. subtilis over time in response to different hydrophobicity fractions of plant root exudate. Expression was measured using fluorescent intensity of GFP fused to the PKS promoter. Color-coded curves indicate ascending methanol concentrations used for consecutive washings of root exudate from Silica-based bonded phase with strong hydrophobicity; darker curve indicates the first flow-through of the loaded root exudate from the silica cartridge. Orange curve indicate the pks expression kinetics without treatment. (FIG. 3B) Quantification of pks expression (amyE::Ppks-gfp) in B. subtilis over time in response to plant root metabolites. Expression was measured by fluorescent intensity of GFP fused to the PKS promotor. Color-coded curves indicate 5, 50,100 and 150 μM of the four metabolites: Methyl β-D-Glucopyranosid (upper left), Chromone (upper right), Chlorogenic acid (lower left) and Caffeic acid (lower right). Orange curve indicate the pks expression kinetics without treatment. (FIG. 3C) Fluorescence imaging of pks expression (amyE::Ppks-gfp) in a single cell resolution 5 h after B. subtilis was grown in MSgg (control) liquid culture supplemented with 150 μM of Chlorogenic acid and Caffeic acid. Images presented as over-layered channels of TL-phase and EGFP. Scale bar—[…]. […] Pathogenicity was measured in E. sativa seedlings whose roots were inoculated with B. subtilis, S. plymuthica and their combination in ratios of 1:1, 100:1 and 1:100. […]
Fluorescence microscopy. […] Cells were s visualized by fluorescence microscopy; Phase contrast and signal from Ppks-gfp (green) are shown. Fluorescent cell count and intensity levels were recorded for 10 fields in each treatment, at least 1000 cells were quantified for each treatment.

B. subtilis = test: Planktonic growth (OD600) in liquid MSgg; format: cell-based; settings: caffeic acid at indicated concentrations, 30° C.
Procedure: Planktonic growth of wild type grown at 30° C. with shaking in liquid MSgg medium without (untreated) or caffeic acid at indicated concentrations was monitored by measuring OD600in a microplate reader. Results are averages of four wells within one experiment and their standard deviations. A representative of three independent experiments is shown.
(§1) pks expression analysis. pks expression in the presence of plant metabolites was analyzed as following: the luminescence intensity of cells harboring a PpksC-lux transcriptional promoter fusion was analyzed. Cells were grown to a mid-logarithmic phase, diluted 1:100 in 150 μl liquid MSgg medium, either with or without root exudate. Cells were grown in a 96-well microplate (Thermo Scientific, Roskilde, Denmark) with agitation at 30° C. for 16 h in a microplate reader (Synergy 2, BioTek, Winooski, Vt., USA) measuring luminescence intensity and the optical density at 600 nm (OD600) every 15 min.

[4] = test system: pks operon (PpksC promoter); test: pks expression, PpksC-lux luminescence reporter; format: cell-based, B. subtilis; settings: library of 400 plant metabolites, growth-normalized RLU
Procedure: FIGS. 23A-23B: An ester of caffeic acid induces antibiotic production. (FIG. 23A) Scheme of a screen of plant metabolites for pks induction. (FIG. 23B) Growth-normalized RLU of PpksC-lux strain treated with a small molecule library representative as in A, compared with the treatment in root exudate.
as §1
A library of 400 plant metabolites was screened for pks induction using B. subtilis cells carrying the PpksC-lux construct (FIG. 23A).

O=C(O)/C=C/c1ccc(O)c(O)c1 [caffeic acid]
protective biofilms in planta on tomato roots (% coverage) [1]: sustained protective biofilms in planta on tomato roots
protective biofilms in planta on tomato roots (% coverage) ([1]; listed as Caffeic acid): can promote biofilm maintenance
duration of increased stability of bacterial beneficial biofilms (B. subtilis biofilms; caffeic acid alone, 100 μM, laboratory conditions): up to 4 days
effect on beneficial biofilms (stability / maintenance), single agent (B. subtilis biofilms): can promote biofilm maintenance
tomato plant survival after pseudomonas syringae pv. Tomato infection [2]: increased tomato plant survival
number of cells expressing the pks operon ([3]; 150 μM, 5 h, single cell fluorescence): induced the number of cells expressing the pks operon
average pks expression level ([3]; 150 μM, single cell fluorescence, versus control): comparable to the control
pks (PKS) expression ([3]; B. subtilis amyE::Ppks-gfp, liquid MSgg, 5, 50, 100 and 150 μM): activatespks operon; also recorded: significantly enhanced PKS expression
planktonic growth of B. subtilis (B. subtilis): no impact on planktonic growth; also recorded: little or no effect on the growth of B. subtilis

O=c1ccc2cc(O)c(O)cc2o1 [aesculetin]
pks activation in screen of plant metabolites [4]: activatespks operon; also recorded: induced pks activation

NCCCCN [putrescine]
effect on beneficial biofilms (stability / maintenance), single agent (B. subtilis biofilms): little or no biological effect
tomato plant survival after pseudomonas syringae pv. Tomato infection [2]: little or no biological effect on tomato plant survival

O=C(/C=C/c1ccc(O)c(O)c1)O[C@@H]1C[C@](O)(C(=O)O)C[C@@H](O)[C@H]1O [chlorogenic acid]
pks activation in screen of plant metabolites [4]: activatespks operon; also recorded: induced pks activation
